The values that follow come from US7816331B2, “Substituted indazole-O-glucosides” (Janssen Pharmaceutica NV, priority 2003, dated 2010).

One assay deals with T1, human SGLT1 (Homo sapiens, UniProt P13866).
T1 construct: expressed in transfected cells
T1 sequence (P13866 1-664): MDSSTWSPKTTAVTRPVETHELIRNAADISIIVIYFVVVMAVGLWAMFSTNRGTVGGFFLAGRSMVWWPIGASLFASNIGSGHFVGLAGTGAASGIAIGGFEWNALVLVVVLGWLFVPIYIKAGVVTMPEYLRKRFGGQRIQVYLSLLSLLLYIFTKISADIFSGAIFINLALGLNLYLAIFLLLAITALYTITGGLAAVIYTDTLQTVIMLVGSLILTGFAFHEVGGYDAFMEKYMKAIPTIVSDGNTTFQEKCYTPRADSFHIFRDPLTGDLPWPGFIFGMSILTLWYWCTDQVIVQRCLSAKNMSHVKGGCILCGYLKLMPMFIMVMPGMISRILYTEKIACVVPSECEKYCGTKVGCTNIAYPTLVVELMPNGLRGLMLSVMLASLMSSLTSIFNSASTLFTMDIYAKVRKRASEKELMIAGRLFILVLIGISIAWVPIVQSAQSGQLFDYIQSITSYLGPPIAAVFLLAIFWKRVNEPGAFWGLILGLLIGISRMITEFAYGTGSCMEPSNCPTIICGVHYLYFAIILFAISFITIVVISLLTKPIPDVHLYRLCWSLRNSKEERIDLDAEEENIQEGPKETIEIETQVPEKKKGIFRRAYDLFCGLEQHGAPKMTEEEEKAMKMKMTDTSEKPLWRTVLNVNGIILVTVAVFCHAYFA
As to the kind of experiment: Cell-based assay for sodium-dependent glucose transport (14C-AMG uptake), CHOK-SGLT1. The conditions noted are these: 10 uM compound, CHO-K1 cells stably expressing human SGLT1, Na-dependent 14C-AMG uptake; for inhibition at 10 µM: read-out: CHOK-SGLT1 % Inh (10 uM). As to the method:
(§1) Cloning of the human SGLT1 and human SGLT2 cDNAs and construction of the mammalian expression vector: The human SGLT1 cDNA (Genbank M24847) was cloned from human small intestine. Human SGLT2 cDNA (Genbank M95549) was cloned from human kidney. Both full cDNAs were subcloned into pcDNA and sequenced to verify the integrity of the construct. Generation of CHO-K1 cells stably expressing human SGLT1 or human SGLT2: Transfection of CHO-K1 cells was performed using DMRIE-C reagent (Life Technologies, Gaithersburg, Md.). Transfectants were then selected in the presence of the antibiotic G418 (Gibco-BRL, Grand Island, N.Y.) at 400 μg/ml. Individual clones were then characterized using the functional assay described below. Cell-based assay for sodium-dependent glucose transport: Cell lines stably expressing human SGLT1 or SGLT2 were then used for functional analysis of Na^+-dependent glucose uptake. Briefly, cells were plated at a density of 65,000 cells per well in a 96-well plate and allowed to grow for 48 hours. Cells were subsequently washed one time with Assay Buffer (50 mM HEPES pH 7.4, 20 mM Tris, 5 mM KCl, 1 mM MgCl2, 1 mM CaCl2 and 137 mM NaCl) and treated with compound in the absence or presence of NaCl for 15 minutes. Cells were then labeled with ^14C-α-methylglucopyranoside (AMG, Sigma, St. Louis, Mo.), a non-metabolizable glucose analog specific for sodium-dependent glucose transporters as previously described (Peng, H. and Lever J. E. Post-transcriptional regulation of Na^+/glucose cotransporter (SGLT1) gene expression in LLC-PK1 cells. J Biol Chem 1995; 270:20536-20542.). After 2 hours the labelled cells were washed three times with ice-cold PBS. After aspiration, cells were solubilized using Microscint 20 (Packard, Meriden, Conn.) and Na-dependent ^14C-AMG uptake was quantified by measuring radioactivity. Plates were counted in a TopCount (Packard, Meriden, Conn.). Results are reported as the % inhibition or IC50 value from a representative experiment. Variability for the functional assay was typically within 20%.

The next assay concerns the target T2, human SGLT2 (Homo sapiens, UniProt P31639).
T2 construct: expressed in transfected cells
T2 sequence (P31639 1-672): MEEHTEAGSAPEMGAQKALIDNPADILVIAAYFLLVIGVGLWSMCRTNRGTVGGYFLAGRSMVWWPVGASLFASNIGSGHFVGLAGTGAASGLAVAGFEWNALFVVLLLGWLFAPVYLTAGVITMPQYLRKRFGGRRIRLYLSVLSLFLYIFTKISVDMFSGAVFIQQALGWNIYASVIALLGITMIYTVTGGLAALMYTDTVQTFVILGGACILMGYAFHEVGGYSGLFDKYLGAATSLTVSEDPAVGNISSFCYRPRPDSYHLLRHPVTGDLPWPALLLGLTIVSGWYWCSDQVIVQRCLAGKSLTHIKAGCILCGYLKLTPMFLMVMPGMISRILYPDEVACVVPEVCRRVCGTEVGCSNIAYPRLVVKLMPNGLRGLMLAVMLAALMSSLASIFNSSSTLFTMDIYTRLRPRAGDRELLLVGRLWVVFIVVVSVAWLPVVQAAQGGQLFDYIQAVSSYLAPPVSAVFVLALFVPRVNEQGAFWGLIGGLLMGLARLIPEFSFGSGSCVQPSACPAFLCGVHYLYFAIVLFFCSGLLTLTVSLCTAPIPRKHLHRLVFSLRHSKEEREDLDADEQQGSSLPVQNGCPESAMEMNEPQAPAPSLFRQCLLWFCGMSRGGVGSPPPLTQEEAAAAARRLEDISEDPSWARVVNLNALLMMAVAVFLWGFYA
As to the kind of experiment: Cell-based assay for sodium-dependent glucose transport (14C-AMG uptake), CHOK-SGLT2. The conditions noted are these: for IC50: CHO-K1 cells stably expressing human SGLT2, Na-dependent 14C-AMG uptake, read-out: CHOK-SGLT2 IC50 (uM) ± SEM; for inhibition at 10 µM: CHO-K1, read-out: CHOK-SGLT2 % Inh. @ 10 μM. The method, then:
as §1, with “experiment.” for “experiment. Variability for the functional assay was typically within 20%.”

In general, IC50 refers to the concentration that inhibits the measured activity by half. In the case of `COc1ccc(CCc2n[nH]c3cc(C)cc(OC4OC(CO)C(O)C(O)C4O)c23)cc1` [Example 9, 2-{3-[2-(4-Methoxy-phenyl)-ethyl]-6-methyl-1H-indazol-4-yloxy}β-D-glucopyranoside], the inhibition at 10 µM at human SGLT1 worked out at 11%. Besides, on human SGLT2, the IC50 came out at 3.05 ± 0.319 µM.

Regarding `CCOc1ccc(CCc2n[nH]c3cc(C)cc(OC4OC(CO)C(O)C(O)C4O)c23)cc1` [Example 10, 2-{3-[2-(4-Ethoxy-phenyl)-ethyl]-6-methyl-1H-indazol-4-yloxy}β-D-glucopyranoside], the inhibition at 10 µM at human SGLT1 was found to be 5%. The IC50 at human SGLT2 was determined as 2 ± 0.071 µM.

As to `OC[C@H]1O[C@@H](Oc2cccc3[nH]nc(CCc4ccc5occc5c4)c23)[C@H](O)[C@@H](O)[C@@H]1O` [Example 18], the inhibition at 10 µM on human SGLT1 was 43%. For the same compound, the IC50 at human SGLT2 was found to be 1.2 ± 0.071 µM.

Take `COc1ccc(SCc2n[nH]c3cccc(OC4OC(CO)C(O)C(O)C4O)c23)cc1` [Example 20, 2-[3-(4-Methoxy-phenylsulfanylmethyl)-1H-indazol-4-yloxy]-β-D-glucopyranoside]: the inhibition at 10 µM at human SGLT1 worked out at 38%; on human SGLT2, 64%.

On to `COc1ccc2c(c1)CCC(CCc1n[nH]c3cc(C)cc(OC4OC(CO)C(O)C(O)C4O)c13)C2` [Example 8, 2-{3-[2-(6-Methoxy-1,2,3,4-tetrahydro-naphthalen-2-yl)-ethyl]-6-methyl-1H-indazol-4-yloxy}-β-D-glucopyranoside], for which the “CHOK-SGLT1 % Inh (10 uM)” value at human SGLT1 was “inactive”. The inhibition at 10 µM at human SGLT2 turned out to be 67%.

As for `COc1ccc2cc(CCc3n[nH]c4cc(C)cc(OC5OC(CO)C(O)C(O)C5O)c34)ccc2c1` [Example 6, 2-{3-[2-(6-Methoxy-naphthalen-2-yl)-ethyl]-6-methyl-1H-indazol-4-yloxy}-β-D-glucopyranoside], the inhibition at 10 µM on human SGLT1 came out at 7%. Besides, on human SGLT2, the IC50 is 1 µM.

`Cc1cc(OC2OC(CO)C(O)C(O)C2O)c2c(CCc3ccc4c(c3)CCCC4)n[nH]c2c1` [Example 5, 2-{6-Methyl-3-[2-(5,6,7,8-tetrahydro-naphthalen-2-yl)-ethyl]-1H-indazol-4-yloxy}-β-D-glucopyranoside]: the “CHOK-SGLT1 % Inh (10 uM)” value at human SGLT1 was “inactive”. Further, on human SGLT2, the IC50 was 3.25 ± 0.461 µM.

For `COc1ccc(Cc2n[nH]c3cc(C)cc(O[C@@H]4O[C@H](CO)[C@@H](O)[C@H](O)[C@H]4O)c23)cc1` [Example 21, 2-[3-(4-Methoxy-benzyl)-6-methyl-1H-indazol-4-yloxy]-β-D-glucopyranoside], on human SGLT1, the “CHOK-SGLT1 % Inh (10 uM)” value is “inactive”. On human SGLT2, the IC50 stood at 0.959 ± 0.118 µM.
